{
  "source": "patent US20120270851A1",
  "about": "“USE OF […] THE TREATMENT OR PREVENTION OF MALARIA” (SANOFI, priority 2009, published 2012)",
  "key": {"P. vivax [1]": {"test_system": "P. vivax", "conditions": "FIG. 2", "method": "(§1) In Vitro Evaluation of the Efficacy of Ferroquine Versus Other Reference Antimalaria Agents, on Blood Isolates Infected with P. vivax\n(§2) The test that follows is performed on 110 isolates of P. vivax, collected in the north-west of Thailand (Tak province) on consenting patients, infected with P. vivax and in the acute phase of the infection, who came for consultation at the Shoklo Malaria Research Unit (SMRU).\n(§3) The samples are collected 5 hours after their arrival and placed in 5 ml heparinized tubes, at room temperature.\n(§4) The platelets and leukocytes are removed from these isolates, by analogy with the method described in Kanlaya et al., Malaria Journal, 2009, 8:115.\nRussell, B. et al. 2008, Antimicrob. Agents Chemother. 52:1040-5."}, "P. vivax [2]": {"test_system": "P. vivax", "conditions": "read-out: EC50 (effective concentration 50); blood isolates of P. vivax from patients, north-west Thailand; FIG. 1", "method": "as §1, §2, §3, §4"}},
  "note": "Like-named read-outs stand apart in the source and are kept apart here.",
  "data": [
    {"substance": "ferroquine", "values": [
      {"measurement": "IC50", "setting": "P. vivax [1]; read-out: IC50 (inhibitory concentration 50), mature trophozoite stage, mature trophozoite stage of P. vivax", "value": 21, "unit": "nM"},
      {"measurement": "IC50", "setting": "P. vivax [1]; read-out: IC50 (inhibitory concentration 50), ring stage, young immature trophozoites (ring stage) of P. vivax", "value": 14, "unit": "nM"},
      {"measurement": "EC50", "setting": "P. vivax [2]", "value": "~6", "unit": "nM"}
    ]}
  ]
}
